Measured values published in the supplement of paper PMC11061612.

Tests used:
Experiment in all cases: Bliss excess, mean over the matrix (fraction); higher = more synergy
[1] = system: LK-2 (Squamous Cell Lung Carcinoma)
Outline: (§1)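 After 24 hours at 37°C and 5% CO2 in 1536-well plates, cells in DMEM/F12 or RPMI plus 10% FBS received two-drug dose matrices for 72 hours. Viability came from CellTiter-Glo 2.0 luminescence and was scaled as inhibition, anchored at 0 by vehicle wells and at 1 by blank wells. Combination Emax is taken as the second-highest inhibition in the matrix, and Bliss excess as the observed combination effect less EA + EB − EA·EB, with EA and EB the single-agent effects.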

[2] = system: KE-37 (T-Lymphoblastic Leukemia)
Outline: as §1

[3] = system: LB996-RCC (Kidney Carcinoma)
Outline: as §1

[4] = system: OAW-42 (Ovarian Carcinoma)
Outline: as §1

[5] = system: CAL-120 (Breast Carcinoma)
Outline: as §1

[6] = system: RERF-GC-1B (Gastric Carcinoma)
Outline: as §1

[7] = system: 23132-87 (Gastric Carcinoma)
Outline: as §1

[8] = system: PANC-03-27 (Pancreatic Carcinoma)
Outline: as §1

[9] = system: RERF-LC-Sq1 (Squamous Cell Lung Carcinoma)
Outline: as §1

[10] = system: PC-3_[JPC-3] (Lung Adenocarcinoma)
Outline: as §1

[11] = system: CAL-62 (Thyroid Gland Carcinoma)
Outline: as §1

[12] = system: OPM-2 (Plasma Cell Myeloma)
Outline: as §1

[13] = system: L-1236 (Hodgkin's Lymphoma)
Outline: as §1

[14] = system: SHP-77 (Small Cell Lung Carcinoma)
Outline: as §1

[15] = system: A2058 (Melanoma)
Outline: as §1

[16] = system: COLO-680N (Esophageal Squamous Cell Carcinoma)
Outline: as §1

[17] = system: RCM-1 (Colorectal Carcinoma)
Outline: as §1

[18] = system: LXF-289 (Lung Adenocarcinoma)
Outline: as §1

[19] = system: TE-8 (Esophageal Squamous Cell Carcinoma)
Outline: as §1

[20] = system: NCI-H2342 (Lung Adenocarcinoma)
Outline: as §1

CN(CCO)CC[C@H](CSc1ccccc1)Nc1ccc(S(=O)(=O)NC(=O)c2ccc(N3CCC([C@@H](O)c4ccccc4-c4ccc(Cl)cc4)CC3)cc2)cc1S(=O)(=O)C(F)(F)F [AZD4320] + C1CN(CCC1(C(=O)N[C@@H](CCO)C2=CC=C(C=C2)Cl)N)C3=NC=NC4=C3C=CN4 [Capivasertib] (first compound max 1 µM, 7x7, partner max 3 µM)
Bliss excess [1]: -0.0077
Bliss excess [2]: 0.0185
Bliss excess [3]: 0.0014
Bliss excess [4]: -0.0274
Bliss excess [5]: -0.0649
Bliss excess [6]: 0.0036
Bliss excess [7]: -0.0483
Bliss excess [8]: -0.0481
Bliss excess [9]: -0.0223
Bliss excess [10]: -0.0961
Bliss excess [11]: -0.0463
Bliss excess [12]: -0.0088
Bliss excess [13]: -0.0476
Bliss excess [14]: 0.0185
Bliss excess [15]: -0.032
Bliss excess [16]: -0.0411
Bliss excess [17]: -0.0768
Bliss excess [18]: -0.0904
Bliss excess [19]: -0.0074
Bliss excess [20]: -0.0259

NC1(C(=O)N[C@@H](CCO)c2ccc(Cl)cc2)CCN(c2ncnc3[nH]ccc23)CC1 [Capivasertib] + CC(C)n1c(=O)n(C)c2cnc3cc(F)c(-c4ccc(OCCCN5CCCCC5)nc4)cc3c21 [AZD1390] (first compound max 10 µM, 7x7, partner max 0.3 µM)
Bliss excess [1]: -0.0165
Bliss excess [2]: -0.0392
Bliss excess [3]: -0.0871
Bliss excess [4]: -0.0171
Bliss excess [5]: -0.086
Bliss excess [6]: -0.0323
Bliss excess [7]: -0.055
Bliss excess [8]: 0.0162
Bliss excess [9]: -0.0655
Bliss excess [10]: -0.0982
Bliss excess [11]: -0.0389
Bliss excess [12]: -0.0346
Bliss excess [13]: 0.0156
Bliss excess [14]: -0.0178
Bliss excess [15]: -0.0336
Bliss excess [16]: -0.0403
Bliss excess [17]: -0.0274
Bliss excess [18]: -0.0825
Bliss excess [19]: -0.0571
Bliss excess [20]: -0.0212

Cc1c2c(nn1C)CSCc1cc(n(C)n1)CSc1cc(c3ccccc3c1)OCCCc1c(C(=O)O)n(C)c3c-2c(Cl)ccc13 [AZD5991] + CN(C)CCCOc1ccc(-c2ccc3ncc4c(c3c2)n(C2CCOCC2)c(=O)n4C)cn1 [AZD0156] (first compound max 1 µM, 7x7, partner max 1 µM)
Bliss excess [1]: 0.0039
Bliss excess [2]: 0.0257
Bliss excess [3]: -0.0569
Bliss excess [4]: 0.0454
Bliss excess [5]: -0.036
Bliss excess [6]: 0.0263
Bliss excess [7]: -0.0643
Bliss excess [8]: -0.0201
Bliss excess [9]: 0.0372
Bliss excess [10]: -0.0156
Bliss excess [11]: -0.0061
Bliss excess [12]: -0.0241
Bliss excess [13]: 0.0295
Bliss excess [14]: -0.0033
Bliss excess [15]: -0.0048
Bliss excess [16]: 0.0049
Bliss excess [17]: -0.0105
Bliss excess [18]: 0.0472
Bliss excess [19]: -0.0172
Bliss excess [20]: -0.016

NC1(C(=O)N[C@@H](CCO)c2ccc(Cl)cc2)CCN(c2ncnc3[nH]ccc23)CC1 [Capivasertib] + CCN(CCO)CCCOc1ccc2c(Nc3cc(CC(=O)Nc4cccc(F)c4)[nH]n3)ncnc2c1 [AZD2811] (first compound max 10 µM, 7x7, partner max 1 µM)
Bliss excess [1]: -0.0303
Bliss excess [2]: 0.0084
Bliss excess [3]: -0.0146
Bliss excess [4]: 0.0291
Bliss excess [5]: 0.0165
Bliss excess [6]: 0.0188
Bliss excess [7]: 0.008
Bliss excess [8]: -0.0068
Bliss excess [9]: 0.0072
Bliss excess [10]: -0.0168
Bliss excess [11]: 0.0437
Bliss excess [12]: 0.0027
Bliss excess [13]: -0.024
Bliss excess [14]: -0.0208
Bliss excess [15]: 0.0072
Bliss excess [16]: -0.0009
Bliss excess [17]: -0.0426
Bliss excess [18]: 0.0856
Bliss excess [19]: -0.0406
Bliss excess [20]: 0.0242

CC1(C)CCC(CN2CCN(c3ccc(C(=O)NS(=O)(=O)c4ccc(NCC5CCOCC5)c([N+](=O)[O-])c4)c(Oc4cnc5[nH]ccc5c4)c3)CC2)=C(c2ccc(Cl)cc2)C1 [Venetoclax] + CN(C)CCCOc1ccc(-c2ccc3ncc4c(c3c2)n(C2CCOCC2)c(=O)n4C)cn1 [AZD0156] (first compound max 1 µM, 7x7, partner max 1 µM)
Bliss excess [1]: 0.02
Bliss excess [2]: -0.0036
Bliss excess [3]: -0.0398
Bliss excess [4]: -0.0402
Bliss excess [5]: -0.0307
Bliss excess [6]: -0.0356
Bliss excess [7]: -0.0015
Bliss excess [8]: -0.0876
Bliss excess [9]: -0.0401
Bliss excess [10]: -0.103
Bliss excess [11]: 0.0063
Bliss excess [12]: 0.0271
Bliss excess [13]: -0.0182
Bliss excess [14]: 0.0254
Bliss excess [15]: 0.0014
Bliss excess [16]: -0.014
Bliss excess [17]: -0.0086
Bliss excess [18]: -0.0157
Bliss excess [19]: -0.0574
Bliss excess [20]: -0.0546

C[C@@H](c1ccc2nccn2c1)n1nnc2ncc(-c3cnn(C)c3)nc21 [Savolitinib] + Cc1c2c(nn1C)CSCc1cc(n(C)n1)CSc1cc(c3ccccc3c1)OCCCc1c(C(=O)O)n(C)c3c-2c(Cl)ccc13 [AZD5991] (first compound max 1 µM, 7x7, partner max 1 µM)
Bliss excess [1]: 0.007
Bliss excess [2]: -0.0335
Bliss excess [3]: -0.0372
Bliss excess [4]: -0.0474
Bliss excess [5]: -0.0387
Bliss excess [6]: -0.0141
Bliss excess [7]: 0.0014
Bliss excess [8]: -0.0541
Bliss excess [9]: -0.009
Bliss excess [10]: -0.0216
Bliss excess [11]: -0.022
Bliss excess [12]: -0.0413
Bliss excess [13]: -0.0017
Bliss excess [14]: -0.0662
Bliss excess [15]: -0.0043
Bliss excess [16]: -0.0291
Bliss excess [17]: -0.0451
Bliss excess [18]: 0.0178
Bliss excess [19]: -0.0142
Bliss excess [20]: 0.0288

COc1nnc2ccc(N3CCC(c4ccc(OCCN5CCN(C)C(=O)[C@H]5C)cc4)CC3)nn12 [AZD5153] + C[C@@H]1COCCN1C2=NC(=NC(=C2)C3(CC3)[S@](=N)(=O)C)C4=C5C=CNC5=NC=C4 [AZD6738] (first compound max 1 µM, 7x7, partner max 10 µM)
Bliss excess [1]: 0.0491
Bliss excess [2]: 0.0286
Bliss excess [3]: -0.0142
Bliss excess [4]: 0.0752
Bliss excess [5]: 0.0309
Bliss excess [6]: 0.0429
Bliss excess [7]: 0.0394
Bliss excess [8]: -0.091
Bliss excess [9]: 0.0033
Bliss excess [10]: 0.0651
Bliss excess [11]: -0.0082
Bliss excess [12]: -0.0245
Bliss excess [13]: -0.0093
Bliss excess [14]: 0.0591
Bliss excess [15]: 0.0671
Bliss excess [16]: 0.0046
Bliss excess [17]: -0.115
Bliss excess [18]: 0.0681
Bliss excess [19]: 0.0176
Bliss excess [20]: 0.0133
